Data from patent publication US8816089B2, “Methods for controlling SR protein phosphorylation, and antiviral agents whose active ingredients comprise agents that control SR protein activity” (priority 2003, dated 2014).
Peptide text beside a SMILES is read from it. * marks the point of attachment. Cbz = O=C(OCc1ccccc1)*

Columns and labels:
HIV = HIV infection experiment in MT-4 cells, HIVp24 by Lumipulse ELISA; details: MT-4 cells, 5, 10, or 20 μM, supernatant after 48 hours
[1] = test system: Chinese hamster CHL cells; experiment: Chromosomal screening test for mutagenicity in mammalian cells; details: positive control, 500 μg/ml, short treatment, +S9 mix
SRPK1 or SRPK2 = experiment: Inhibition of SRPK1 or SRPK2 phosphorylation activity by SRPIN-1 analogs (FIG. 5A); type: biochemical; details: 10 μM in DMSO, 30° C., 20 minutes
Description: FIG. 5A: Evaluation of the SRPK-inhibiting activities of SRPIN-1 and analogs thereof.
The same procedure as described in Example 4B was used to determine whether SRPIN-1 analogs had the activity of inhibiting the phosphorylation activity of SRPK1 and SRPK2. Each SRPIN-1 analog (10 μM; in DMSO) was incubated with 1 μg of purified recombinant SRPK1 or SRPK2 protein, which was expressed in E. coli, in a reaction buffer (400 μM HEPES (pH 7.5), 100 μM MgCl2, 200 μM ATP, […] [γ-^32P] ATP, and 1 mg/ml RS peptide (SEQ ID NO: 5)) in a 30° C. water bath for 20 minutes.
After RS peptide was incubated with SRPK1 or SRPK2 for 20 minutes, the reaction solution was dropped onto P81 phosphocellulose membrane (P81; Whatman) and the membrane was washed three times for ten minutes with 5% phosphoric acid solution. After washing, ^32P radioactivity on the P81 membrane was determined using a liquid scintillation counter.

SARS virus (FFM-1) = type: cell-based; details: Vero cells, 40 μM, 48 hours
Cytomegalovirus = details: HFL1 cells, 20 or 40 μM, seven days after infection
SRp75, SRp55, and SRp40 = experiment: Degradation of HA-tagged SR proteins in Flp-In-293 cells, Western blot; type: cell-based, human; details: 10 μM, ten hours
Description: FIG. 1B: Degradation of SR protein. Plasmids for the SRp75, SRp55, and SRp40 genes were fused with HA tag and introduced into Flp-In-293 cells. MG132 (474790; purchased from CALBIOCHEM) was added to the cells at a final concentration of 10 μM. The cells were lysed and heat-denatured. The resulting protein sample was separated by SDS-PAGE, followed by Western analysis using a rabbit anti-HA antibody as the primary antibody and a donkey anti-rabbit IgG antibody as the secondary antibody.
Using Genejuice, 1 μg each of the plasmids for the SRp75, SRp55, and SRp40 genes fused with HA tag (HA-SRp75, HA-SRp55, and HA-SRp40; gifts from Dr. Woan-Yuh TARN), were introduced into Flp-In-293 cells derived from human fetal kidney. After 36 hours, MG132 (474790; purchased from Calbiochem), a ubiquitin proteasome inhibitor, was added at a final concentration of 10 μM. After ten hours, the cells were lysed with SDS-PAGE sample buffer and heat-denatured. The resulting lysate was used as a protein sample. Using the same procedures as described above, the sample was fractionated by SDS-PAGE, and analyzed by Western blotting using a rabbit anti-HA antibody (H1803; purchased from Santa Cruz) as a primary antibody and a donkey anti-rabbit IgG antibody (NA9340; purchased from Amersham) as a secondary antibody.

| SMILES | effect in suppressing HIV replication (HIVp24) (HIV) | inhibitory effect on the phosphorylation activity of SRPK1 and/or SRPK2 (SRPK1 or SRPK2) | further results |
| --- | --- | --- | --- |
| O=C(Nc1cccc(C(F)(F)F)c1)c1ccncc1 [compound 608, N-[3-(trifluoromethyl)phenyl]isonicotinamide] | strong effects in suppressing HIV propagation | – | – |
| Cc1ccc(N2CCCCC2)c(NC(=O)c2ccncc2)c1 [compound 342, N-[5-methyl-2-(1-piperidinyl)phenyl]isonicotinamide] | strong effects in suppressing HIV propagation | – | – |
| CN(C)N=O [DMN, dimethylnitrosamine, reference compound] | – | – | frequency of occurrence of cells with chromosomal abnormalities [1]: 52.0%; frequency of occurrence of cells with chromosomal abnormalities (number of cells) ([1]; 50 metaphasic cells): 26 cells |
| C[C@H]1CCCCN1c1ccc(C(F)(F)F)cc1NC(=O)c1ccncc1 [compound 613, (S)—N-[2-(2-methyl-1-piperidinyl)-5-(trifluoromethyl)phenyl]isonicotinamide] | strong effects in suppressing HIV propagation | strong inhibitory effect | – |
| O=C(Nc1cc(C(F)(F)F)ccc1N1CCc2ccccc21)c1ccncc1 [compound 619, N-[2-(1-indolinyl)-5-(trifluoromethyl)phenyl]isonicotinamide] | strong effects in suppressing HIV propagation | strong inhibitory effect | – |
| O=C(NC(=S)Nc1ccccc1)c1cccnc1 [compound 626] | strong effects in suppressing HIV propagation | – | – |
| O=C(NC(=S)Nc1ccc(I)cc1Cl)c1cccnc1 [compound 623] | strong effects in suppressing HIV propagation | – | – |
| O=C(Nc1cc(C(F)(F)F)ccc1N1CCCCCC1)c1ccncc1 [compound 618, N-[2-(1-hexahydro-1H-azepinyl)-5-(trifluoromethyl)phenyl]isonicotinamide] | strong effects in suppressing HIV propagation | strong inhibitory effect | – |
| O=C(Nc1cc(F)ccc1N1CCCCC1)c1ccncc1 [compound 348, N-[5-fluoro-2-(1-piperidinyl)phenyl]isonicotinamide] | strong effects in suppressing HIV propagation | – | – |
| Cc1ccc(S(=O)(=O)Nc2cc(C(F)(F)F)ccc2N2CCCCC2)cc1 [compound 622, N-[2-(1-piperidinyl)-5-(trifluoromethyl)phenyl]-p-toluenesulfonamide] | strong effects in suppressing HIV propagation | – | – |
| O=C(Nc1cc(C(F)(F)F)ccc1N1CCCCC1)c1ccc([N+](=O)[O-])cc1 [compound 345, N-[2-(1-piperidinyl)-5-(trifluoromethyl)phenyl]-4-nitrobenzamide] | strong effects in suppressing HIV propagation | – | – |
| COc1ccc(C(=O)Nc2cc(C(F)(F)F)ccc2N2CCCCC2)cc1 [compound 615, N-[2-(1-piperidinyl)-5-(trifluoromethyl)phenyl]-4-methoxybenzamide] | strong effects in suppressing HIV propagation | strong inhibitory effect | – |
| O=C(Nc1cc(C(F)(F)F)ccc1N1CCc2ccccc2C1)c1ccncc1 [compound 621, N-[2-(1,2,3,4-tetrahydroisoquinolin-2-yl)-5-(trifluoromethyl)phenyl]isonicotinamide] | – | strong inhibitory effect | – |
| CCN(CC)c1ccc(C(F)(F)F)cc1NC(=O)c1ccncc1 [compound 347, N-[2-diethylamino-5-(trifluoromethyl)phenyl]isonicotinamide] | strong effects in suppressing HIV propagation | – | – |
| O=C(Nc1ccccc1N1CCCCC1)c1ccncc1 [Compound No. 349, N-[2-(1-piperidinyl)phenyl]isonicotinamide] | – | – | SARS virus propagation (plaque assay) (SARS virus (FFM-1)): significantly suppressed SARS virus propagation; morphological changes and cell death caused by cytomegalovirus infection (Cytomegalovirus): suppressed the abnormal morphological changes and cell death caused by cytomegalovirus infection |
| O=C(Nc1cc(Cl)ccc1N1CCCCC1)c1ccncc1 [compound 341, N-[5-chloro-2-(1-piperidinyl)phenyl]isonicotinamide] | strong effects in suppressing HIV propagation | – | – |
| FC(F)(F)c1ccc(N2CCCCC2)c(NC(=S)c2ccncc2)c1 [compound 616, N-[2-(1-piperidinyl)-5-(trifluoromethyl)phenyl]isonicotinthioamide] | strong effects in suppressing HIV propagation | – | – |
| O=C(NC(=S)Nc1cccc(C(F)(F)F)c1)c1cccnc1 [compound 625] | strong effects in suppressing HIV propagation | strong inhibitory effect | – |
| O=C(NC(=S)Nc1cc(C(F)(F)F)ccc1N1CCCCC1)c1cccnc1 [compound 624, 1-nicotinoyl-3-[2-(1-piperidinyl)-5-(trifluoromethyl)phenyl]thiourea] | strong effects in suppressing HIV propagation | strong inhibitory effect | – |
| O=C(Nc1cc(C(F)(F)F)ccc1Br)c1ccncc1 [compound 612, N-[2-bromo-5-(trifluoromethyl)phenyl]isonicotinamide] | – | strong inhibitory effect | – |
| CC(C)C[C@@H](C=O)NC(=O)[C@H](CC(C)C)NC(=O)[C@H](CC(C)C)NC(=O)OCc1ccccc1 [MG132] (Cbz-Leu-Leu-Leu-aldehyde) | – | – | degradation of SR proteins (anti-HA signal) (SRp75, SRp55, and SRp40): inhibited degradation of SR75, SR55, and SR40 proteins |
| O=C(Nc1cc(C(F)(F)F)ccc1N1CCCCC1)c1cccnc1 [compound 343, N-[2-(1-piperidinyl)-5-(trifluoromethyl)phenyl]nicotinamide] | strong effects in suppressing HIV propagation | – | – |
| O=C(Nc1cc(C(F)(F)F)ccc1N1Cc2ccccc2C1)c1ccncc1 [compound 620, N-[2-(2-isoindolinyl)-5-(trifluoromethyl)phenyl]isonicotinamide] | strong effects in suppressing HIV propagation | – | – |
